From PubChem BioAssay (NCI)
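Cells were grown in 96-well plates and exposed to each compound for 48 hours at five concentrations; endpoints were interpolated linearly between bracketing concentrations, or set to the highest concentration if not reached. At the GI50, growth is halved. The concentration for full growth arrest is given as TGI.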

Columns and labels:
Assay in all cases: growth of human tumour cells (NCI), 48 h
786-0 renal = system: 786-0 renal
A498 renal = system: A498 renal
EKVX NSCLC = system: EKVX NSCLC
HCC-2998 colon = system: HCC-2998 colon
HOP-62 NSCLC = system: HOP-62 NSCLC
HS 578T breast = system: HS 578T breast
KM12 colon = system: KM12 colon
OVCAR-4 ovarian = system: OVCAR-4 ovarian
SNB-19 CNS = system: SNB-19 CNS
UACC-62 melanoma = system: UACC-62 melanoma

Compound	TGI (786-0 renal) [µM]	TGI (A498 renal) [µM]	TGI (EKVX NSCLC) [µM]	TGI (HCC-2998 colon) [µM]	TGI (HOP-62 NSCLC) [µM]	TGI (HS 578T breast) [µM]	TGI (KM12 colon) [µM]	TGI (OVCAR-4 ovarian) [µM]	TGI (SNB-19 CNS) [µM]	TGI (UACC-62 melanoma) [µM]	GI50 (EKVX NSCLC) [µM]	GI50 (HCC-2998 colon) [µM]	GI50 (HOP-62 NSCLC) [µM]	GI50 (HS 578T breast) [µM]	GI50 (KM12 colon) [µM]	GI50 (OVCAR-4 ovarian) [µM]	GI50 (SNB-19 CNS) [µM]	GI50 (UACC-62 melanoma) [µM]	GI50 (A498 renal) [µM]
O=C1C[C@H](CCC(=O)OCc2ccccc2)NC(=O)C[C@H](CCC(=O)OCc2ccccc2)NC(=O)C[C@H](CCC(=O)OCc2ccccc2)N1	> 100	30.8	> 100	> 100	> 100	> 100	> 100	> 100	> 100	> 100	–	–	–	–	–	–	–	–	–
COc1cc2c(cc1OCCCN1CCN(c3ncnc4ccccc34)CC1)N=CC1CCCN1C2=O (stereo not given)	–	0.0164	0.677	0.0381	0.278	0.0568	0.183	8.63	11.2	0.0379	0.152	0.019	0.0282	< 0.0177	0.0325	0.0633	0.041	0.018	–
Fc1c(F)c(C(F)(F)F)c(F)c(F)c1N/N=C/c1cn(Cc2ccccc2)c2ccccc12	66.8	88.6	43	–	22.4	> 100	45	78.9	76.8	61.5	–	–	–	–	–	–	–	–	–
COc1ccc(C2C(C=O)C(N3CCN(C)CC3)=Nc3nc4ccccc4n32)cc1 (stereo not given)	> 100	29.1	97.3	33.9	28.7	> 100	50.6	48.2	41	36.5	–	–	–	–	–	–	–	–	–
O=S(O)c1cc(Cl)cc(Cl)c1OCc1ccccc1	–	> 100	> 100	> 100	> 100	–	> 100	> 100	> 100	> 100	–	–	–	–	–	–	–	–	–
CNC(=O)Nc1ccccc1	> 100	> 100	> 100	> 100	> 100	> 100	> 100	> 100	> 100	> 100	–	–	–	–	–	–	–	–	–
O=C(COc1ccc(Cl)cc1Cl)N/N=C/C=C/c1ccc([N+](=O)[O-])o1	65.9	> 100	> 100	–	54.4	7.4	> 100	61.8	41.4	> 100	–	–	–	–	–	–	–	–	–
C[N+](C)(CCO)CCN1c2ccccc2Sc2ccccc21	–	> 10	> 10	> 10	> 10	> 10	> 10	> 10	> 10	> 10	–	–	–	–	–	–	–	–	–
COc1ccc2nc3ccccc3c(NCc3ccc(C)cc3)c2c1	–	3.05	7.94	3.26	3.7	–	8.49	6.51	11.4	3.26	2.5	1.73	1.78	–	2.6	2.25	2.97	1.64	1.65
Clc1ccc(-c2nnc(-c3c(Cl)c(Cl)c(Cl)c(Cl)c3-c3nc4ccccc4[nH]3)o2)cc1	> 100	> 100	> 100	> 100	> 100	> 100	> 100	> 100	–	> 100	–	–	–	–	–	–	–	–	–
COc1cc2c(cc1OC)-c1cc3ccc(OC)c(OC)c3c[n+]1CC2	> 100	–	> 100	> 100	> 100	> 100	> 100	> 100	68	> 100	–	–	–	–	–	–	–	–	–
COc1ccc2c(c1)CC[C@@H]1[C@@H]2CC[C@]2(C)C(=O)/C(=C/c3ccc(O)c(OC)c3)C[C@@H]12	–	> 100	> 100	75.5	> 100	–	–	> 100	> 100	> 100	–	–	–	–	–	–	–	–	–
Cn1c(=O)c2c(nc(NCCNc3nc4c(c(=O)n(C)c(=O)n4C)n3C)n2C)n(C)c1=O	> 100	> 100	> 100	> 100	> 100	> 100	> 100	> 100	> 100	> 100	–	–	–	–	–	–	–	–	–
CCOC(=O)c1c(CN2CCCC2)n(-c2ccccc2)c2cc(Br)c(OC)cc12	32	19.5	55.5	–	22.5	> 100	–	> 100	> 100	23.8	–	–	–	–	–	–	–	–	–
N#C[S-].[Ce+3].c1cnc2c(c1)ccc1cccnc12.c1cnc2c(c1)ccc1cccnc12.c1cnc2c(c1)ccc1cccnc12	11.1	14.5	17.4	18.9	35.7	–	18.3	20.5	22.5	10.1	–	–	–	–	–	–	–	–	–
NC(CC(=O)O)(Cc1ccccc1)C(=O)O (stereo not given)	> 100	> 100	> 100	–	> 100	> 100	> 100	> 100	> 100	> 100	–	–	–	–	–	–	–	–	–
CC(=O)C1=C(O)CCC1=O	–	–	> 100	> 100	> 100	> 100	> 100	> 100	> 100	> 100	–	–	–	–	–	–	–	–	–
C[C@]12CCC(=O)C=C1CC[C@@H]1[C@@H]2[C@@H](O)C[C@@]2(C)[C@H]1CC[C@]2(O)C(=O)COC(=O)C1CCCC1	> 100	> 100	> 100	> 100	> 100	> 100	> 100	> 100	> 100	> 100	–	–	–	–	–	–	–	–	–
Cc1ccc(SSCCCCCS(=O)O)cc1	–	52	> 100	> 100	56.4	–	> 100	> 100	> 100	49.5	–	–	–	–	–	–	–	–	–
O=c1/c(=C/c2ccc([N+](=O)[O-])o2)sc2n1[C@@H](c1ccc3c(c1)OCO3)C=C(c1cc(F)c(Cl)cc1Cl)N=2	42.1	> 100	32.7	28.7	58.9	> 100	38.4	32.6	60.3	34	–	–	–	–	–	–	–	–	–
O=C(NNC(=O)c1nsc2ccccc12)c1ccc(Cl)cc1	–	–	42.3	31	33.7	–	65.7	–	42.3	–	–	–	–	–	–	–	–	–	–
